Reference: PMC6825221, “In silico re-engineering of a neurotransmitter to activate KCNQ potassium channels in an isoform-specific manner” (Communications Biology, 2019)

Key:
Type in all cases: cell-based
KCNQ2 [1] = molecular target: T1, KCNQ2 (Homo sapiens, UniProt O43526); assay: TEVC of homomeric KCNQ2 expressed in Xenopus oocytes
Description: We generated cRNA transcripts encoding human KCNQ1, KCNQ2, KCNQ3, KCNQ4, KCNQ5 or GLRA1 (NM_001146040) (GenScript, Piscataway, NJ, USA) by in vitro transcription using the T7 polymerase mMessage mMachine kit (Thermo Fisher Scientific), after vector linearization, from cDNA sub-cloned into plasmids incorporating Xenopus laevis β-globin 5′ and 3′ UTRs flanking the coding region to enhance translation and cRNA stability. We quantified cRNA by spectrophotometry. […] We injected defolliculated stage V and VI Xenopus laevis oocytes (Ecocyte Bioscience, Austin, TX and Xenoocyte, Dexter, MI) with KCNQ channel α subunit (5-20 ng) or GLRA1 (20 ng) cRNAs. We incubated the oocytes at 16 °C in Barth’s saline solution (Ecocyte Bioscience) containing penicillin and streptomycin, with daily washing, for 2–5 days prior to two-electrode voltage-clamp (TEVC) recording.
(§1) For recording, oocytes were placed in a small-volume oocyte bath (Warner) and viewed them with a dissection microscope. Chemicals were sourced from Sigma, Matrix Scientific and Santa Cruz. […] All stock solutions were diluted in bath solution on the day of experiments. KCNQ2/3 channel activation was screened for using either 30 µM or 100 µM concentrations of each of the six compounds, then dose responses were conducted as appropriate. Bath solution was (in mM): 96 NaCl, 4 KCl, 1 MgCl2, 1 CaCl2, 10 HEPES (pH 7.6). Compounds were introduced into the oocyte recording bath by gravity perfusion at a constant flow of 1 ml per minute for 3 min prior to recording. Pipettes were of 1–2 MΩ resistance when filled with 3 M KCl. Currents were recorded in response to voltage pulses between −120 or −80 mV and + 40 mV at 20 mV intervals from a holding potential of −80 mV, to yield current-voltage relationships, current magnitude, and for quantifying activation rate. We analyzed data using Clampfit (Molecular Devices) and Graphpad Prism software (GraphPad, San Diego, CA, USA); values are stated as mean ± SEM. We plotted raw or normalized tail currents versus prepulse voltage and fitted with a single Boltzmann function:1 g=(A1−A2)/1+exp(V12−V)∕VS+A2, where g is the normalized tail conductance, A1 is the initial value at −∞, A2 is the final value at +∞, V1/2 is the half-maximal voltage of activation and Vs the slope factor. Activation, deactivation, wash-in and washout kinetics were fitted with single exponential functions to yield a τ value.

KCNQ3* = KCNQ3* (Homo sapiens, UniProt O43525, A315T); assay: TEVC of homomeric KCNQ3* (A315T KCNQ3 mutant) expressed in Xenopus oocytes
Description: We next validated the in silico predictions using two-electrode voltage clamp of homomeric neuronal KCNQ2-5 channel isoforms expressed in Xenopus laevis oocytes. […] As in previous studies[8],[10], we used the A315T KCNQ3 mutant (KCNQ3*) that ensures large enough currents to accurately quantify voltage dependence and pharmacology of homomeric KCNQ3[16].
We generated cRNA transcripts encoding human KCNQ1, KCNQ2, KCNQ3, KCNQ4, KCNQ5 or GLRA1 (NM_001146040) (GenScript, Piscataway, NJ, USA) by in vitro transcription using the T7 polymerase mMessage mMachine kit (Thermo Fisher Scientific), after vector linearization, from cDNA sub-cloned into plasmids incorporating Xenopus laevis β-globin 5′ and 3′ UTRs flanking the coding region to enhance translation and cRNA stability. We quantified cRNA by spectrophotometry. We generated mutant KCNQ2 and KCNQ3 cDNAs by site-directed mutagenesis using a QuikChange kit (Stratagene, San Diego, CA) and prepared the corresponding cRNAs as above. We injected defolliculated stage V and VI Xenopus laevis oocytes (Ecocyte Bioscience, Austin, TX and Xenoocyte, Dexter, MI) with KCNQ channel α subunit (5-20 ng) or GLRA1 (20 ng) cRNAs. We incubated the oocytes at 16 °C in Barth’s saline solution (Ecocyte Bioscience) containing penicillin and streptomycin, with daily washing, for 2–5 days prior to two-electrode voltage-clamp (TEVC) recording.
as §1, with “We performed TEVC at room temperature using an OC-725C amplifier (Warner Instruments, Hamden, CT) and pClamp10 software (Molecular Devices, Sunnyvale, CA) 2–5 days after cRNA injection as described in the section above. For” for “For”, “We plotted raw or normalized tail currents versus prepulse voltage and fitted with a single Boltzmann function:1 g=(A1−A2)/1+exp(V12−V)∕VS+A2, where g is the normalized tail conductance, A1 is the initial value at −∞, A2 is the final value at +∞, V1/2 is the half-maximal voltage of activation and Vs the slope factor. Activation, deactivation, wash-in and washout kinetics were fitted with single exponential functions to yield a τ value.” left out

KCNQ2 [2] = molecular target: T1, KCNQ2; assay: Relative ion permeability of KCNQ2; parameters: dose or concentration left out as unconfirmed
Description: According to the Goldman–Hodgkin–Katz (GHK) voltage equation:2 Erev=RT∕Fln(PK[K^+]O+PNa[Na]O+PCl[Cl]i)/(PK[K^+]i+PNa[Na]i+PCl[Cl]o), where Erev is the absolute reversal potential and P is permeability. This permits calculation of the relative permeability of each ion if concentrations on either side of the membrane are known. A modified version of this equation was used here to determine relative permeability of two ions in a system in which only the extracellular ion concentration was known. Thus, relative permeability of Rb^+, Cs^+, and Na^+ compared to K^+ ions was calculated for KCNQ2 and KCNQ3* by plotting the I/V relationships for each channel with each extracellular ion (100 mM) (using the voltage protocol shown in Fig. 9g) and comparing them to that with 100 mM extracellular K^+ ion to yield a change in reversal potential (ΔErev) for each ion compared to that of K^+. Permeability ratios for each ion (X) compared to K^+ were then calculated as3 ΔErev=Erev,X−Erev,K=lnPX/PK. […]

SMILES: CS(=O)(=O)N(CC(=O)O)c1cccc(F)c1 [3FMSG]
- effect of a tenfold excess (100 µM) on KCNQ2 activation by 2FPG (10 µM) (KCNQ2 [1]): subtly reduced the efficacy of 2FPG
- effects on KCNQ2 (KCNQ2 [1]; dose response): negligible or much less potent effects
- KCNQ3* activation and deactivation rates (KCNQ3*; 100 µM): speeded activation and slowed deactivation
- EC50 (KCNQ3*; ΔV0.5act, read-out: EC50, KCNQ3* activation): 18 ± 12 nM
- relative Na+ permeability (compared to K+) of KCNQ2 (KCNQ2 [2]): not KCNQ2
